Experimental data reported in US20230123334A1, “AMINO LIPID COMPOUND, PREPARATION METHOD THEREFOR, AND APPLICATION THEREOF” (SHENZHEN SHENXIN BIOTECHNOLOGY CO., LTD., priority 2020, published 2023).

Tested on: HEK293 cells
Assay: Preliminary screening as DNA vectors, GFP transfection of HEK293 cells
Type: cell-based
Details: HEK293 cells; lipid/DOPE liposome with 75 ng plasmid DNA (psin-EGFP-IRES-Puro); number of cells expressing GFP divided by total number of nuclei (Hoechst)
Procedure: Cell line: HEK293 cells (ATCC CRL-1573™)
Medium: DMEM supplemented with 10% fetal bovine serum (Invitrogen)
Mode of screening: cell transfection on 96-well plates
Detection (readout): percentage of the number of GFP fluorescent cells relative to the total number of cells (the total number of cells was measured using nucleus dye Hoechst—see FIG. 2). Lipofectamine2000 (Invitrogen) was used as positive control, according to the manufacturer's instructions.
Method: an 8-channel pipette was used for sample addition. The contents shown were for a single well of a 96-well flat plate.
1. The compound (0.01 mmol) prepared in Example 1 was dissolved in 1 mL of anhydrous ethanol. After ultrasonically dissolved, 10 μL of the resultant amino lipid solution in ethanol was taken and mixed with 5 μL of DOPE solution in ethanol (0.01 m), and then to the obtained mixture was added 35 μL of 0.2M sodium acetate buffer (pH 5.6), and 50 μL of liposome solution was prepared by vortex at a constant rotating speed for 30 s. 4 μL was taken from the 50 μL liposome solution and added to 46 μL of 0.02M sodium acetate buffer (pH 5.6), and the final liposome solution was formed by vortex at a constant rotating speed for 30 s. 5 μL was taken from the final liposome solution and mixed with 75 ng plasmid DNA (psin-EGFP-IRES-Puro, Clontech) dissolved in 5 μL of 0.02 M sodium acetate buffer, and was allowed to stay at room temperature for 30 min to form a lipid/DNA transfection complex.
2. 10 μL of the lipid/DNA transfection complex was incubated at room temperature for 30 min, followed by addition of 90 μL of fresh resuspended cells (3-5×10^4 cells) and mixing with a pipette. 100 μL of cells+lipid/DNA complex was transferred to separate wells of a 96-well culture plate immediately, and placed in an incubator containing 5% CO2 at 37° C.
3. Hoechst33258 (Invitrogen) was added at a final concentration of 0.2 μg/mL to the cells 20 to 24 hours after initial cell transfection, and cultured in darkness at 37° C. for 15 min. Afterwards, the cells were washed once with a PBS solution, and then added with medium for culture for 20 to 24 h.
4. The cells were placed in a high-throughput confocal microscope (Molecular Devices ImageXpress), and four visual fields of the image of the cells were captured for each well, and images at three laser wavelengths were captured for each sample: bright field images of cells (FIG. 2(a) and FIG. 2(b)), Hoechst-staining images showing total nuclei (FIG. 2(c) and FIG. 2(d)) and GFP images showing success in transfection with the plasmid DNA and the expression of GFP (FIG. 2(e) and FIG. 2(f)). MetaXpress software was used to separately count the cells in the Hoechst-staining images and GFP images, and then the number of cells expressing GFP was divided by the total number of nuclei to give the absolute cell transfection efficiency. The absolute transfection efficiency was calculated as follows: […]

Compound | Absolute DNA transfection efficiency in HEK293 cells [%]
CCCCCCCCCCCCN(CCCCCCCCCCCC)c1nc(NCCCCCCCCCCC)nc(NCCN(C)C)n1 [Compound N112N12D1] | 0.7
CCCCCCCCCCCCN(CCCCCCCCCCCC)c1nc(NCCCCCCCCCCC)nc(NCCN2CCOCC2)n1 [Compound N112N12D2] | 0.0
CCCCCCCCCCCCN(CCCCCCCCCCCC)c1nc(NCCCCCCCCCCC)nc(NCCN(CC)CC)n1 [Compound N112N12D7] | 0.4
CCCCCCCCCCCCN(CCCCCCCCCCCC)c1nc(NCCCCCCCCCCC)nc(NCCCN2CCOCC2)n1 [Compound N112N12D8] | 0.0
CCCCCCCCCCCCN(CCCCCCCCCCCC)c1nc(NCCCCCCCCCCC)nc(NCCCN2CCN(C)CC2)n1 [Compound N112N12D9] | 0.1
CCCCCCCCCCCCN(CCCCCCCCCCCC)c1nc(NCCCCCCCCCCC)nc(NCC2CCN(C)CC2)n1 [Compound N112N12D10] | 0.7

Same assay, conditions: amino lipid/DOPE liposome with 75 ng plasmid DNA (psin-EGFP-IRES-Puro); number of GFP-expressing cells divided by total nuclei (Hoechst)

Compound | Absolute DNA transfection efficiency in HEK293 cells [%]
CCCCCCNc1nc(NCCN(C)C)nc(SCCCCCC)n1 [S6N6 D1] | 0.1
CCCCCCNc1nc(NCCN2CCOCC2)nc(SCCCCCC)n1 [S6N6 D2] | 0.0
CCCCCCNc1nc(NCCN2CCCC2)nc(SCCCCCC)n1 [S6N6 D3] | 0.0
CCCCCCNc1nc(NCCN2CCCCC2)nc(SCCCCCC)n1 [S6N6 D4] | 0.0
CCCCCCNc1nc(NCCN2CCN(C)CC2)nc(SCCCCCC)n1 [S6N6 D5] | 0.0
CCCCCCNc1nc(NCCCN(C)C)nc(SCCCCCC)n1 [S6N6 D6] | 0.0
CCCCCCNc1nc(NCCN(CC)CC)nc(SCCCCCC)n1 [S6N6 D7] | 0.0
CCCCCCNc1nc(NCCCN2CCOCC2)nc(SCCCCCC)n1 [S6N6 D8] | 0.0
CCCCCCNc1nc(NCCCN2CCN(C)CC2)nc(SCCCCCC)n1 [S6N6 D9] | 0.0
CCCCCCNc1nc(NCC2CCN(C)CC2)nc(SCCCCCC)n1 [S6N6 D10] | 0.0
CCCCCCCNc1nc(NCCN(C)C)nc(SCCCCCC)n1 [S6N7 D1] | 0.1
CCCCCCCNc1nc(NCCN2CCOCC2)nc(SCCCCCC)n1 [S6N7 D2] | 0.0
CCCCCCCNc1nc(NCCN2CCCC2)nc(SCCCCCC)n1 [S6N7 D3] | 0.0
CCCCCCCNc1nc(NCCN2CCCCC2)nc(SCCCCCC)n1 [S6N7 D4] | 1.1
CCCCCCCNc1nc(NCCN2CCN(C)CC2)nc(SCCCCCC)n1 [S6N7 D5] | 3.7
CCCCCCCNc1nc(NCCCN(C)C)nc(SCCCCCC)n1 [S6N7 D6] | 0.4
CCCCCCCNc1nc(NCCCN2CCOCC2)nc(SCCCCCC)n1 [S6N7 D8] | 0.0
CCCCCCCNc1nc(NCCCN2CCN(C)CC2)nc(SCCCCCC)n1 [S6N7 D9] | 0.2
CCCCCCCNc1nc(NCC2CCN(C)CC2)nc(SCCCCCC)n1 [S6N7 D10] | 2.9

Compound | Absolute DNA transfection efficiency in HEK293 cells [%]
CCCCCCCCNc1nc(NCCN(C)C)nc(SCCCCCC)n1 [S6N8 D1] | 0.2
CCCCCCCCNc1nc(NCCN2CCOCC2)nc(SCCCCCC)n1 [S6N8 D2] | 0.3
CCCCCCCCNc1nc(NCCN2CCCC2)nc(SCCCCCC)n1 [S6N8 D3] | 2.0
CCCCCCCCNc1nc(NCCN2CCCCC2)nc(SCCCCCC)n1 [S6N8 D4] | 1.7
CCCCCCCCNc1nc(NCCN2CCN(C)CC2)nc(SCCCCCC)n1 [S6N8 D5] | 3.4
CCCCCCCCNc1nc(NCCCN(C)C)nc(SCCCCCC)n1 [S6N8 D6] | 0.6
CCCCCCCCNc1nc(NCCN(CC)CC)nc(SCCCCCC)n1 [S6N8 D7] | 0.9
CCCCCCCCNc1nc(NCCCN2CCOCC2)nc(SCCCCCC)n1 [S6N8 D8] | 0.0
CCCCCCCCNc1nc(NCCCN2CCN(C)CC2)nc(SCCCCCC)n1 [S6N8 D9] | 1.2
CCCCCCCCNc1nc(NCC2CCN(C)CC2)nc(SCCCCCC)n1 [S6N8 D10] | 0.4
CCCCCCCCCNc1nc(NCCN(C)C)nc(SCCCCCC)n1 [S6N9 D1] | 0.1
CCCCCCCCCNc1nc(NCCN2CCOCC2)nc(SCCCCCC)n1 [S6N9 D2] | 0.2
CCCCCCCCCNc1nc(NCCN2CCCC2)nc(SCCCCCC)n1 [S6N9 D3] | 0.4
CCCCCCCCCNc1nc(NCCN2CCCCC2)nc(SCCCCCC)n1 [S6N9 D4] | 0.4
CCCCCCCCCNc1nc(NCCN2CCN(C)CC2)nc(SCCCCCC)n1 [S6N9 D5] | 7.9
CCCCCCCCCNc1nc(NCCCN(C)C)nc(SCCCCCC)n1 [S6N9 D6] | 1.5
CCCCCCCCCNc1nc(NCCN(CC)CC)nc(SCCCCCC)n1 [S6N9 D7] | 1.1
CCCCCCCCCNc1nc(NCCCN2CCOCC2)nc(SCCCCCC)n1 [S6N9 D8] | 0.0
CCCCCCCCCNc1nc(NCCCN2CCN(C)CC2)nc(SCCCCCC)n1 [S6N9 D9] | 0.8

Compound | Absolute DNA transfection efficiency in HEK293 cells [%]
CCCCCCCCCNc1nc(NCC2CCN(C)CC2)nc(SCCCCCC)n1 [S6N9 D10] | 4.3
CCCCCCCCCCCNc1nc(NCCN(C)C)nc(SCCCCCC)n1 [S6N11 D1] | 1.5
CCCCCCCCCCCNc1nc(NCCN2CCOCC2)nc(SCCCCCC)n1 [S6N11 D2] | 0.2
CCCCCCCCCCCNc1nc(NCCN2CCCC2)nc(SCCCCCC)n1 [S6N11 D3] | 2.8
CCCCCCCCCCCNc1nc(NCCN2CCCCC2)nc(SCCCCCC)n1 [S6N11 D4] | 3.3
CCCCCCCCCCCNc1nc(NCCN2CCN(C)CC2)nc(SCCCCCC)n1 [S6N11 D5] | 17.5
CCCCCCCCCCCNc1nc(NCCCN(C)C)nc(SCCCCCC)n1 [S6N11 D6] | 1.9
CCCCCCCCCCCNc1nc(NCCN(CC)CC)nc(SCCCCCC)n1 [S6N11 D7] | 2.2
CCCCCCCCCCCNc1nc(NCCCN2CCOCC2)nc(SCCCCCC)n1 [S6N11 D8] | 1.5
CCCCCCCCCCCNc1nc(NCCCN2CCN(C)CC2)nc(SCCCCCC)n1 [S6N11 D9] | 21.1
CCCCCCCCCCCNc1nc(NCC2CCN(C)CC2)nc(SCCCCCC)n1 [S6N11 D10] | 7.9
CCCCCCCCCCCCNc1nc(NCCN(C)C)nc(SCCCCCC)n1 [S6N12 D1] | 4.7
CCCCCCCCCCCCNc1nc(NCCN2CCOCC2)nc(SCCCCCC)n1 [S6N12 D2] | 0.9
CCCCCCCCCCCCNc1nc(NCCN2CCCC2)nc(SCCCCCC)n1 [S6N12 D3] | 6.2
CCCCCCCCCCCCNc1nc(NCCN2CCCCC2)nc(SCCCCCC)n1 [S6N12 D4] | 2.0
CCCCCCCCCCCCNc1nc(NCCN2CCN(C)CC2)nc(SCCCCCC)n1 [S6N12 D5] | 25.9
CCCCCCCCCCCCNc1nc(NCCCN(C)C)nc(SCCCCCC)n1 [S6N12 D6] | 6.0
CCCCCCCCCCCCNc1nc(NCCN(CC)CC)nc(SCCCCCC)n1 [S6N12 D7] | 2.2
CCCCCCCCCCCCNc1nc(NCCCN2CCOCC2)nc(SCCCCCC)n1 [S6N12 D8] | 4.0
